Source: the kinase profiling compilation of Christmann-Franck et al. (2016)

Assays:
Assay in all cases: radiometric filter-binding kinase assay
BTK (human) = BTK (human) (UniProt Q06187)
MAP2K2 (human) = MAP2K2 (human) (UniProt P36507)
NEK6 (human) = NEK6 (human) (UniProt Q9HC98)
MAPK14 (human) = MAPK14 (human) (UniProt Q16539)
NUAK1 (human) = NUAK1 (human) (UniProt O60285)
RPS6KA1 KD1 KD2 (human) = RPS6KA1 KD1 KD2 (human) (UniProt Q15418)
TEK (human) = TEK (human) (UniProt Q02763)
MAPK3 (human) = MAPK3 (human) (UniProt P27361)
NTRK1 (human) = NTRK1 (human) (UniProt P04629)
PIM3 (human) = PIM3 (human) (UniProt Q86V86)
GSK3B (human) = GSK3B (human) (UniProt P49841)
MAPK15 (human) = MAPK15 (human) (UniProt Q8TD08)
MELK (human) = MELK (human) (UniProt Q14680)
MELK (human), sequence (Q14680 whole entry, looked up): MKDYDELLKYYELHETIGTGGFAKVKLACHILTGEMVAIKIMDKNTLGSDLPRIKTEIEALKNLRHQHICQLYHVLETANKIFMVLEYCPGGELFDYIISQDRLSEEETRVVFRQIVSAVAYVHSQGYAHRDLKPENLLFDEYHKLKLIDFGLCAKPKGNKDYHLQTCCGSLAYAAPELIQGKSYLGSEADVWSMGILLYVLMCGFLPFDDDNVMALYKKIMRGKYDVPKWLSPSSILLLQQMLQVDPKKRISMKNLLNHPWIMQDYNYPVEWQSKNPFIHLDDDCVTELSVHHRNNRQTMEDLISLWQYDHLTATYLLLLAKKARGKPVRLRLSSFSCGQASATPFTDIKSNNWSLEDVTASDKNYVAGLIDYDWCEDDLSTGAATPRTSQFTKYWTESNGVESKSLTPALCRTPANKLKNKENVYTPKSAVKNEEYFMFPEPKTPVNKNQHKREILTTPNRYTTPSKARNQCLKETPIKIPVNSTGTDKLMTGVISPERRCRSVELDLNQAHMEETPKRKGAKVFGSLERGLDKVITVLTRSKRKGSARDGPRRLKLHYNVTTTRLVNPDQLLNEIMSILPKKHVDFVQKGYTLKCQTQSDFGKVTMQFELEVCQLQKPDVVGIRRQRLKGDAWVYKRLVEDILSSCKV

STK33 (human) = STK33 (human) (UniProt Q9BYT3)
STK33 (human), sequence (Q9BYT3 whole entry, looked up): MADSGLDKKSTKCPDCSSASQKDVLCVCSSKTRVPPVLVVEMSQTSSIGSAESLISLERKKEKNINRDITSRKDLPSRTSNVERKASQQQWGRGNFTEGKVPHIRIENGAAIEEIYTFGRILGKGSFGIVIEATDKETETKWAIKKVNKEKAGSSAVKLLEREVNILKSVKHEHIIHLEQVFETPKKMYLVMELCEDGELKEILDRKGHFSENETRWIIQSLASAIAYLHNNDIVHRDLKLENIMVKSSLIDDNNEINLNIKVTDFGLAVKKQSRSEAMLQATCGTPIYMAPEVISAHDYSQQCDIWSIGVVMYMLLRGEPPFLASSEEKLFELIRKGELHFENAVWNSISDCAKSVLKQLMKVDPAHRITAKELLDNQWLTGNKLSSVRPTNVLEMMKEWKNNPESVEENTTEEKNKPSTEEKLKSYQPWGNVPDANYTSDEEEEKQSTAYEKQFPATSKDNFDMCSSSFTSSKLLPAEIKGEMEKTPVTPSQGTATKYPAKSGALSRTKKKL

CSNK2A1 (human) = CSNK2A1 (human) (UniProt P68400)
CSNK2A1 (human), sequence (P68400 whole entry, looked up): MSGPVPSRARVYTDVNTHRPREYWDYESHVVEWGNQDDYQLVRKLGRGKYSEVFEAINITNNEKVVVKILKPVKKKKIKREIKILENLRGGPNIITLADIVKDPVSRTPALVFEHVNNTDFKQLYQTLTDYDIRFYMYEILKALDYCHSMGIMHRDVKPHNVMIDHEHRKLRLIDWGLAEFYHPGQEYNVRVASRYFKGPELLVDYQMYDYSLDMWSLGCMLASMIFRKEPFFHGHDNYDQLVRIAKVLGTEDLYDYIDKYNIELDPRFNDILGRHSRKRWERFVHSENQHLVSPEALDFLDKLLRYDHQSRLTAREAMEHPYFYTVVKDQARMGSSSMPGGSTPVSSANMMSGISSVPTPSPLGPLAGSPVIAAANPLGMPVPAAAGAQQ

MAPK9 (human) = MAPK9 (human) (UniProt P45984)
MAPK9 (human), sequence (P45984 whole entry, looked up): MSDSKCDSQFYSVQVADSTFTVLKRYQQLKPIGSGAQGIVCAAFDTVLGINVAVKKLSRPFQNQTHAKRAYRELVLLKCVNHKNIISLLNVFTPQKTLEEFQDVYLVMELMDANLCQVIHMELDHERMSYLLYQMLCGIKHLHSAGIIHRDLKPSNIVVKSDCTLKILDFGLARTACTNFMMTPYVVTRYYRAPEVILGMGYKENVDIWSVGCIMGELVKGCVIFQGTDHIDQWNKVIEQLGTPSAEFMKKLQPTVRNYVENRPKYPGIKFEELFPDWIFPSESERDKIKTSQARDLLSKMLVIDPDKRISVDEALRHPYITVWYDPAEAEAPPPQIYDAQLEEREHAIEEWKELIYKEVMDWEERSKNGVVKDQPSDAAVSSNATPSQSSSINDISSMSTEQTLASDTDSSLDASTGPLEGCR

EIF2AK3 (human) = EIF2AK3 (human) (UniProt Q9NZJ5)
PKN2 (human) = PKN2 (human) (UniProt Q16513)
PTK6 (human) = PTK6 (human) (UniProt Q13882)
ZAP70 (human) = ZAP70 (human) (UniProt P43403)
MAP3K1 (human) = MAP3K1 (human) (UniProt Q13233)

MAPK14 (human), sequence (Q16539 whole entry, looked up): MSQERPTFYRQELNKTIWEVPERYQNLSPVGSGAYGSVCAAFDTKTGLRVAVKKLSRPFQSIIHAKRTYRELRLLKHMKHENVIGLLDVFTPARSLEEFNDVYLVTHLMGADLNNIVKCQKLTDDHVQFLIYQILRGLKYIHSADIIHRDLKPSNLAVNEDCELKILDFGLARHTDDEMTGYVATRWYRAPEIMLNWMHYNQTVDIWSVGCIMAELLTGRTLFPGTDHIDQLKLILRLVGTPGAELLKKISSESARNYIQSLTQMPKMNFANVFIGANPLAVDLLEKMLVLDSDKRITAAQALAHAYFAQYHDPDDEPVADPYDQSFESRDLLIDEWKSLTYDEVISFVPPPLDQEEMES
BTK (human), sequence (Q06187 whole entry, looked up): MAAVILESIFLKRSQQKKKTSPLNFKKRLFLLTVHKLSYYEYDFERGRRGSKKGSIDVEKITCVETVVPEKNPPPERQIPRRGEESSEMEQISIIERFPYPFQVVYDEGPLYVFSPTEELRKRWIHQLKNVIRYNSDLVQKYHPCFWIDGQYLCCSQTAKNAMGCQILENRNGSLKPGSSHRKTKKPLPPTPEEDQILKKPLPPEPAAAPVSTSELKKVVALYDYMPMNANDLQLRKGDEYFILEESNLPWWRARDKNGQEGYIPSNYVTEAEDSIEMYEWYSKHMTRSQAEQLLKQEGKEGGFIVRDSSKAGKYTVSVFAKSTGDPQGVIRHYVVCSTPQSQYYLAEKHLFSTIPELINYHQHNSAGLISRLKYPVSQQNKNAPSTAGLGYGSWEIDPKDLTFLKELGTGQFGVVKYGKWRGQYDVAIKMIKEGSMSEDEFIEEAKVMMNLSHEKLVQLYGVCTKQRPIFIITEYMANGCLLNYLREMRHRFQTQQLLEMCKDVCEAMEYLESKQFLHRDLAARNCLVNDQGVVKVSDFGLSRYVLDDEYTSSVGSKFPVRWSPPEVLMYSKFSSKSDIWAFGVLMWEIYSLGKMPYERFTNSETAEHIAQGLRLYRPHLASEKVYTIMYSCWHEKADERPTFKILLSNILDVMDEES
NEK6 (human), sequence (Q9HC98 whole entry, looked up): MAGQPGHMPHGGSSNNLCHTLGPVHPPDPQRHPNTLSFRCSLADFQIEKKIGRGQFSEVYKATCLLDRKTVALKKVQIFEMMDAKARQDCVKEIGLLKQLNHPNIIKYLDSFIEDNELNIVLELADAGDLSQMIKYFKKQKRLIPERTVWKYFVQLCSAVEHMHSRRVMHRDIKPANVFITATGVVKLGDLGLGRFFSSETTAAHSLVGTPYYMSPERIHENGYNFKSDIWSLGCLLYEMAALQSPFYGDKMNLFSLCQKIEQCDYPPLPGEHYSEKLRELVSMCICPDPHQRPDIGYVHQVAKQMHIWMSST
NUAK1 (human), sequence (O60285 whole entry, looked up): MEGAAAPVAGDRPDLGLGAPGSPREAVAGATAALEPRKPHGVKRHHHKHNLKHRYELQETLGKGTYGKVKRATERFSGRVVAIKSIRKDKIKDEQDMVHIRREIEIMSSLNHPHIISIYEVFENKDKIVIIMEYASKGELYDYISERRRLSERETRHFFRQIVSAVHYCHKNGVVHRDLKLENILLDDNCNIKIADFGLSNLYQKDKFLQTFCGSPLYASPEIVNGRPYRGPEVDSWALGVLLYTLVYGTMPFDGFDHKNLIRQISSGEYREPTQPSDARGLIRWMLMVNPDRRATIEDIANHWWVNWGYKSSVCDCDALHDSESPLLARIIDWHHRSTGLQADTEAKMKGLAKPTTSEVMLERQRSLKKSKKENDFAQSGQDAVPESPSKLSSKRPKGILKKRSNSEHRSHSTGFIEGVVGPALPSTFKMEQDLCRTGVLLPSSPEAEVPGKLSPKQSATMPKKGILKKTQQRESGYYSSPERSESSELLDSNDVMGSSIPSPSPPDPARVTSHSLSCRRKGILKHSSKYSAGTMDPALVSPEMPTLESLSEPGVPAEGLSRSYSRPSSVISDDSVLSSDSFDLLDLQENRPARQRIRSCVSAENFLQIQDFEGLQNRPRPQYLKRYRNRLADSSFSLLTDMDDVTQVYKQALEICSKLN
RPS6KA1 KD1 KD2 (human), sequence (Q15418 whole entry, looked up): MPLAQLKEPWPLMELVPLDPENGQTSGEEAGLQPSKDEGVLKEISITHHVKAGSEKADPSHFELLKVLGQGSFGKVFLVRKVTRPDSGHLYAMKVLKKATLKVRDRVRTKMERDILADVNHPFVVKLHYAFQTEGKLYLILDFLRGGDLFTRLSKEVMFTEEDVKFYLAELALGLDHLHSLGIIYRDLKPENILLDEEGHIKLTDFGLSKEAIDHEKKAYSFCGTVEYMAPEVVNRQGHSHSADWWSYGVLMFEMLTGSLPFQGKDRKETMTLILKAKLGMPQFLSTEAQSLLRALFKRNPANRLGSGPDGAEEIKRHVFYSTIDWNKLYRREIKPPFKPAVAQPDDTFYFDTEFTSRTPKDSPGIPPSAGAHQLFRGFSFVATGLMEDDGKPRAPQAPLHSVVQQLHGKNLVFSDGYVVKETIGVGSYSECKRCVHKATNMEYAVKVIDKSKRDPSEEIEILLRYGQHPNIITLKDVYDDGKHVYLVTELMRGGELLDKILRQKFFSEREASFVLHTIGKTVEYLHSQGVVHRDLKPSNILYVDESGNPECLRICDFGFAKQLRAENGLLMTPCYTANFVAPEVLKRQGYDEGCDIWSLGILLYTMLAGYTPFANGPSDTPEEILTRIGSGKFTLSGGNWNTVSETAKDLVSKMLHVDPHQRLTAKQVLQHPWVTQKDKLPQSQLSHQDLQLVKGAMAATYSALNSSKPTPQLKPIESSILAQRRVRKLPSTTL

residual activity (BTK (human); compound 0.1 µM): 103%
residual activity (BTK (human); compound 1.0 µM): 85.3%
residual activity (BTK (human); compound 10.0 µM): 34.2%
residual activity (MAP2K2 (human); compound 0.1 µM): 131%
residual activity (MAP2K2 (human); compound 1.0 µM): 116%
residual activity (MAP2K2 (human); compound 10.0 µM): 96.8%
residual activity (NEK6 (human); compound 0.1 µM): 104%
residual activity (NEK6 (human); compound 1.0 µM): 84.6%
residual activity (NEK6 (human); compound 10.0 µM): 73.5%
residual activity (MAPK14 (human); compound 0.1 µM): 41%
residual activity (MAPK14 (human); compound 1.0 µM): 3.48%
residual activity (MAPK14 (human); compound 10.0 µM): 2.61%
residual activity (NUAK1 (human); compound 0.1 µM): 85.8%
residual activity (NUAK1 (human); compound 1.0 µM): 90.5%
residual activity (NUAK1 (human); compound 10.0 µM): 84.9%
residual activity (RPS6KA1 KD1 KD2 (human); compound 0.1 µM): 107%
residual activity (RPS6KA1 KD1 KD2 (human); compound 1.0 µM): 84.3%
residual activity (RPS6KA1 KD1 KD2 (human); compound 10.0 µM): 37.9%
residual activity (TEK (human); compound 0.1 µM): 95.2%
residual activity (TEK (human); compound 1.0 µM): 91.2%
residual activity (TEK (human); compound 10.0 µM): 60.4%
residual activity (MAPK3 (human); compound 0.1 µM): 99%
residual activity (MAPK3 (human); compound 1.0 µM): 103%
residual activity (MAPK3 (human); compound 10.0 µM): 99.7%
residual activity (NTRK1 (human); compound 0.1 µM): 111%
residual activity (NTRK1 (human); compound 1.0 µM): 77.7%
residual activity (NTRK1 (human); compound 10.0 µM): 43.4%
residual activity (PIM3 (human); compound 0.1 µM): 107%
residual activity (PIM3 (human); compound 1.0 µM): 108%
residual activity (PIM3 (human); compound 10.0 µM): 98.9%
residual activity (GSK3B (human); compound 0.1 µM): 102%
residual activity (GSK3B (human); compound 1.0 µM): 104%
residual activity (GSK3B (human); compound 10.0 µM): 101%
residual activity (MELK (human); compound 0.1 µM): 115%
residual activity (MELK (human); compound 1.0 µM): 99.5%
residual activity (MELK (human); compound 10.0 µM): 64.1%
residual activity (STK33 (human); compound 0.1 µM): 106%
residual activity (STK33 (human); compound 1.0 µM): 96.7%
residual activity (STK33 (human); compound 10.0 µM): 79.6%
residual activity (CSNK2A1 (human); compound 0.1 µM): 90.2%
residual activity (CSNK2A1 (human); compound 1.0 µM): 94.1%
residual activity (CSNK2A1 (human); compound 10.0 µM): 98.5%
residual activity (MAPK9 (human); compound 0.1 µM): 90.8%
residual activity (MAPK9 (human); compound 1.0 µM): 21.8%
residual activity (MAPK9 (human); compound 10.0 µM): 4.89%
residual activity (EIF2AK3 (human); compound 0.1 µM): 98.8%
residual activity (EIF2AK3 (human); compound 1.0 µM): 64.6%
residual activity (EIF2AK3 (human); compound 10.0 µM): 21.4%
residual activity (PKN2 (human); compound 0.1 µM): 102%
residual activity (PKN2 (human); compound 1.0 µM): 93.3%
residual activity (PKN2 (human); compound 10.0 µM): 78.6%
residual activity (PTK6 (human); compound 0.1 µM): 101%
residual activity (PTK6 (human); compound 1.0 µM): 43.1%
residual activity (PTK6 (human); compound 10.0 µM): 6.76%
residual activity (ZAP70 (human); compound 0.1 µM): 92.4%
residual activity (ZAP70 (human); compound 1.0 µM): 89.5%
residual activity (ZAP70 (human); compound 10.0 µM): 59.9%
residual activity (MAP3K1 (human); compound 0.1 µM): 127%
residual activity (MAP3K1 (human); compound 1.0 µM): 111%
residual activity (MAP3K1 (human); compound 10.0 µM): 108%
Structure (SMILES): CCN1CCN(Cc2ccc(NC(=O)c3ccc(C)c(Oc4ccnc5[nH]ccc45)c3)cc2C(F)(F)F)CC1
residual activity (MAPK15 (human); compound 0.1 µM): 106%
residual activity (MAPK15 (human); compound 10.0 µM): 44.6%
